The record followed here is patent publication US9546173B2 (Novartis AG, priority 2012, dated 2017).

Chain of activated ERK2 (P28482 whole entry): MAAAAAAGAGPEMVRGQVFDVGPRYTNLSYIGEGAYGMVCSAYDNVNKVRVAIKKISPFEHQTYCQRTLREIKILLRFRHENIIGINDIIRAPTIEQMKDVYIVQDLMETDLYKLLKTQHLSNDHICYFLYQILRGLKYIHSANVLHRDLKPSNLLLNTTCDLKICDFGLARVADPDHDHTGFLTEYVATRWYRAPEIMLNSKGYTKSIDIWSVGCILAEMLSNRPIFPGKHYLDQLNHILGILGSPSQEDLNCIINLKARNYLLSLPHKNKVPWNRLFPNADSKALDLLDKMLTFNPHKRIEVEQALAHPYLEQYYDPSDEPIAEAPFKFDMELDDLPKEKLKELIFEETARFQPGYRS

For the assay, the target named is activated ERK2 (Homo sapiens (Human), UniProt P28482). Nature of the assay: Activated ERK2 kinase assay (AlphaScreen, ERKtide peptide phosphorylation). It is filed as biochemical. The conditions noted are these: […] ERK2, 200 nM ERKtide peptide, 35 μM ATP, 30 min preincubation; read-out: ERK2 IC50. The text has this:
Production of Activated ERK2 Protein:
Activated ERK2 protein was generated in insect cells by co-expression with a constitutively active form of MEK1. The ERK2 protein was expressed and purified as a nHis-PreScission-ERK2 tagged protein and then proteolytically processed to the full-length wild-type protein. […] Double-phosphorylated ERK2 protein was purified from the mixture by mono-Q column separation.
Activated ERK2 Kinase Assay:
A 16-point, half-log dilution series of compounds at 41× final concentration was used for generating IC50 curves. Compound dilution series were prepared in 100% DMSO. ERK2 was preincubated with compounds for 30 minutes at ambient temperature. Reaction was initiated by addition of a substrate cocktail of ERKtide peptide and ATP and was allowed to proceed for 2-3 hours at ambient temperature. Reaction was terminated by addition of 10 μL of a 2× stop buffer consisting of 100 mM Tris-Cl [pH 7.5], 25 mM EDTA, 0.01% Tween 20, 10 μg/mL of AlphaScreen Protein A Acceptor Beads, 10 μg/mL of Streptavidin Donor Beads (PerkinElmer, Waltham, Mass.), and 1.4 μg/mL phospho-EGF Receptor (Thr669) antibody (Cat #3056, Cell Signaling Technology, Danvers, Mass.). Terminated reactions were read, after overnight incubation in the dark, on an EnVision Multilabel Plate Reader (PerkinElmer, Waltham, Mass.), with excitation and emission wavelengths set to 680 nm and 570 nm, respectively. IC50 values were determined using a four-parameter fit.
(In Alpha technology, singlet oxygen from a donor bead excites a nearby acceptor bead.)
Regarding `CC1(C)c2cnc(N[C@H]3CC[C@H](O)CC3)nc2CN1C(=O)N[C@H](CO)c1ccccc1` [compound 60, N-((S)-2-hydroxy-1-phenylethyl)-2-(((1r,4S)-4-hydroxycyclohexyl)amino)-5,5-dimethyl-5H-pyrrolo[3,4-d]pyrimidine-6(7H)-carboxamide], the IC50 is 82 nM. For the compound `CN1CCC(Nc2ncc3c(n2)CN(C(=O)N[C@H](CO)c2ccccc2)C3(C)C)CC1` [compound 61, (S)-N-(2-hydroxy-1-phenylethyl)-5,5-dimethyl-2-((1-methylpiperidin-4-yl)amino)-5H-pyrrolo[3,4-d]pyrimidine-6(7H)-carboxamide], the IC50 turned out to be 21000 nM. `CC1(C)c2cnc(N[C@H]3CC[C@@H](O)CC3)nc2CN1C(=O)N[C@H](CO)c1ccccc1` [compound 62, N-((S)-2-hydroxy-1-phenylethyl)-2-(((1s,4R)-4-hydroxycyclohexyl)amino)-5,5-dimethyl-5H-pyrrolo[3,4-d]pyrimidine-6(7H)-carboxamide]: the IC50 is 896 nM.

As to `CC(=O)N1CC[C@H](Nc2ncc3c(n2)CN(C(=O)N[C@H](CO)c2ccccc2)C3(C)C)C1` [compound 63, 2-(((S)-1-acetylpyrrolidin-3-yl)amino)-N-((S)-2-hydroxy-1-phenylethyl)-5,5-dimethyl-5H-pyrrolo[3,4-d]pyrimidine-6(7H)-carboxamide], the IC50 was determined as 3560 nM. `CC(=O)N1CC[C@@H](Nc2ncc3c(n2)CN(C(=O)N[C@H](CO)c2ccccc2)C3(C)C)C1` [compound 64, 2-(((R)-1-acetylpyrrolidin-3-yl)amino)-N-((S)-2-hydroxy-1-phenylethyl)-5,5-dimethyl-5H-pyrrolo[3,4-d]pyrimidine-6(7H)-carboxamide]: the IC50 is 740 nM. Take `COC(=O)N1CC[C@H](Nc2ncc3c(n2)CN(C(=O)N[C@H](CO)c2ccccc2)C3(C)C)C1` [compound 65, (S)-methyl 3-((6-(((S)-2-hydroxy-1-phenylethyl)carbamoyl)-5,5-dimethyl-6,7-dihydro-5H-pyrrolo[3,4-d]pyrimidin-2-yl)amino)pyrrolidine-1-carboxylate]: the IC50 amounted to 8830 nM. With `COC(=O)N1CC[C@@H](Nc2ncc3c(n2)CN(C(=O)N[C@H](CO)c2ccccc2)C3(C)C)C1` [compound 66, (R)-methyl 3-((6-(((S)-2-hydroxy-1-phenylethyl)carbamoyl)-5,5-dimethyl-6,7-dihydro-5H-pyrrolo[3,4-d]pyrimidin-2-yl)amino)pyrrolidine-1-carboxylate], the IC50 amounted to 30 nM.

As for `CO[C@H]1CC[C@H](Nc2ncc3c(n2)CN(C(=O)N[C@H](CO)c2ccccc2)C3(C)C)CC1` [compound 67, N-((S)-2-hydroxy-1-phenylethyl)-2-(((1r,4S)-4-methoxycyclohexyl)amino)-5,5-dimethyl-5H-pyrrolo[3,4-d]pyrimidine-6(7H)-carboxamide], the IC50 was found to be 68 nM. `CC(=O)N1CC2C(C1)C2Nc1ncc2c(n1)CN(C(=O)N[C@H](CO)c1ccccc1)C2(C)C` (stereo partly drawn) [compound 68, 2-((3-acetyl-3-azabicyclo[3.1.0]hexan-6-yl)amino)-N-((S)-2-hydroxy-1-phenylethyl)-5,5-dimethyl-5H-pyrrolo[3,4-d]pyrimidine-6(7H)-carboxamide]: the concentration for half-maximal inhibition (IC50) turned out to be 450 nM.

On to `CC(=O)N1CC(Nc2ncc3c(n2)CN(C(=O)N[C@H](CO)c2ccccc2)C3(C)C)C1` [compound 69, (S)-2-((1-acetylazetidin-3-yl)amino)-N-(2-hydroxy-1-phenylethyl)-5,5-dimethyl-5H-pyrrolo[3,4-d]pyrimidine-6(7H)-carboxamide], for which the IC50 was determined as 5580 nM. Take `CC1(C)c2cnc(NC3CCS(=O)(=O)C3)nc2CN1C(=O)N[C@H](CO)c1ccccc1` (stereo partly drawn) [compound 70, 2-((1,1-dioxidotetrahydrothiophen-3-yl)amino)-N-((S)-2-hydroxy-1-phenylethyl)-5,5-dimethyl-5H-pyrrolo[3,4-d]pyrimidine-6(7H)-carboxamide]: the IC50 is 932 nM. With `Cn1ccc(Nc2ncc3c(n2)CN(C(=O)N[C@H](CO)c2ccccc2)C3(C)C)n1` [compound 71, (S)-N-(2-hydroxy-1-phenylethyl)-5,5-dimethyl-2-((1-methyl-1H-pyrazol-3-yl)amino)-5H-pyrrolo[3,4-d]pyrimidine-6(7H)-carboxamide], the IC50 stood at 2550 nM. On to `CC1(C)c2cnc(NCC3CCCCO3)nc2CN1C(=O)N[C@H](CO)c1ccccc1` (stereo partly drawn) [compound 72, N-((S)-2-hydroxy-1-phenylethyl)-5,5-dimethyl-2-(((tetrahydro-2H-pyran-2-yl)methyl)amino)-5H-pyrrolo[3,4-d]pyrimidine-6(7H)-carboxamide], for which the IC50 was found to be 5310 nM. Take `CC(Nc1ncc2c(n1)CN(C(=O)N[C@H](CO)c1ccccc1)C2(C)C)C1CCCO1` (stereo partly drawn) [compound 73, N-((S)-2-hydroxy-1-phenylethyl)-5,5-dimethyl-2-((1-(tetrahydrofuran-2-yl)ethyl)amino)-5H-pyrrolo[3,4-d]pyrimidine-6(7H)-carboxamide]: the IC50 came out at 315 nM.

With `CC(C)Nc1ncc2c(n1)CN(C(=O)N[C@H](CO)c1ccccc1)C2(C)C` [compound 74, (S)-N-(2-hydroxy-1-phenylethyl)-2-(isopropylamino)-5,5-dimethyl-5H-pyrrolo[3,4-d]pyrimidine-6(7H)-carboxamide], the IC50 was 122 nM. Turning to `CC1(C)c2cnc(NCC3CCCO3)nc2CN1C(=O)N[C@H](CO)c1ccccc1` (stereo partly drawn) [compound 75, N-((S)-2-hydroxy-1-phenylethyl)-5,5-dimethyl-2-(((tetrahydrofuran-2-yl)methyl)amino)-5H-pyrrolo[3,4-d]pyrimidine-6(7H)-carboxamide], the IC50 was found to be 2640 nM.

Turning to `O=C(NCc1ccc(Cl)cc1)N1Cc2nc(NC3CCOCC3)ncc2C12CCC2` [compound 76, N-(4-chlorobenzyl)-2′-((tetrahydro-2H-pyran-4-yl)amino)spiro[cyclobutane-1,5′-pyrrolo[3,4-d]pyrimidine]-6′(7′H)-carboxamide], the IC50 was 31 nM.

In the case of `O=C(N[C@H](CO)c1ccccc1)N1Cc2nc(NC3CCOCC3)ncc2C12CCC2` [compound 77, (S)-N-(2-hydroxy-1-phenylethyl)-2′-((tetrahydro-2H-pyran-4-yl)amino)spiro[cyclobutane-1,5′-pyrrolo[3,4-d]pyrimidine]-6′(7′H)-carboxamide], the IC50 is 13 nM.

`CCC1(C)c2cnc(NC3CCOCC3)nc2CN1C(=O)NCc1ccc(Cl)cc1` (centres unmarked) [compound 78, N-(4-chlorobenzyl)-5-ethyl-5-methyl-2-((tetrahydro-2H-pyran-4-yl)amino)-5H-pyrrolo[3,4-d]pyrimidine-6(7H)-carboxamide]: the IC50 was found to be 22 nM. The same measure for `CC[C@@]1(C)c2cnc(NC3CCOCC3)nc2CN1C(=O)N[C@H](CO)c1ccccc1` [compound 79, (S)-5-ethyl-N-((S)-2-hydroxy-1-phenylethyl)-5-methyl-2-((tetrahydro-2H-pyran-4-yl)amino)-5H-pyrrolo[3,4-d]pyrimidine-6(7H)-carboxamide]: 971 nM; for `CC[C@]1(C)c2cnc(NC3CCOCC3)nc2CN1C(=O)N[C@H](CO)c1ccccc1` [compound 80, (R)-5-ethyl-N-((S)-2-hydroxy-1-phenylethyl)-5-methyl-2-((tetrahydro-2H-pyran-4-yl)amino)-5H-pyrrolo[3,4-d]pyrimidine-6(7H)-carboxamide]: 22 nM. For `CC1(C)c2cnc(N[C@H]3CC[C@H](C#N)CC3)nc2CN1C(=O)N[C@H](CO)c1ccccc1` [compound 81, 2-(((1r,4S)-4-cyanocyclohexyl)amino)-N-((S)-2-hydroxy-1-phenylethyl)-5,5-dimethyl-5H-pyrrolo[3,4-d]pyrimidine-6(7H)-carboxamide], the IC50 came out at 114 nM. Consider `CN1CCC(Nc2ncc3c(n2)CN(C(=O)N[C@H](CO)c2ccccc2)C3(C)C)CC1=O` (stereo partly drawn) [compound 82, N-((S)-2-hydroxy-1-phenylethyl)-5,5-dimethyl-2-((1-methyl-2-oxopiperidin-4-yl)amino)-5H-pyrrolo[3,4-d]pyrimidine-6(7H)-carboxamide], for which the IC50 is 208 nM. On to `CN1CCC(Nc2ncc3c(n2)CN(C(=O)N[C@H](CO)c2ccccc2)C3(C)C)CC1=O` (stereo partly drawn) [compound 83, N-((S)-2-hydroxy-1-phenylethyl)-5,5-dimethyl-2-((1-methyl-2-oxopiperidin-4-yl)amino)-5H-pyrrolo[3,4-d]pyrimidine-6(7H)-carboxamide], for which the half-maximal inhibitory concentration (IC50) turned out to be 1160 nM.

Consider `CN1CC(Nc2ncc3c(n2)CN(C(=O)N[C@H](CO)c2ccccc2)C3(C)C)CCC1=O` (stereo partly drawn) [compound 84, N-((S)-2-hydroxy-1-phenylethyl)-5,5-dimethyl-2-((1-methyl-6-oxopiperidin-3-yl)amino)-5H-pyrrolo[3,4-d]pyrimidine-6(7H)-carboxamide], for which the IC50 amounted to 164 nM. Consider `CC1(C)c2cnc(NC3CCC(=O)NC3)nc2CN1C(=O)N[C@H](CO)c1ccccc1` (stereo partly drawn) [compound 85, N-((S)-2-hydroxy-1-phenylethyl)-5,5-dimethyl-2-((6-oxopiperidin-3-yl)amino)-5H-pyrrolo[3,4-d]pyrimidine-6(7H)-carboxamide], for which the IC50 was 53 nM.

As usually defined, the IC50 is the midpoint of a concentration-inhibition curve.
